Reference: patent US20190315823A1, “SMALL CATIONIC ANTI-BIOFILM AND IDR PEPTIDES” (priority 2013, published 2019)
Peptide text beside a SMILES is read from it.

Experiments:
[1] = test system: Pseudomonas aeruginosa (Pa) biofilm; details: P. aeruginosa; de la Fuente-Núñez 2012; cited from earlier work
[2] = test system: P. aeruginosa; details: de la Fuente-Núñez 2012; cited from earlier work
[3] = test system: human peripheral blood mononuclear cells; format: cell-based
Experimental: FIG. 18. Lack of cytotoxicity of immunomodulatory peptides against human peripheral blood mononuclear cells as determined by the low release of cytosolic lactate dehydrogenase.
Venous blood (20 ml) from healthy volunteers was collected in Vacutainer® collection tubes containing sodium heparin as an anticoagulant (Becton Dickinson, Mississauga, ON) in accordance with UBC ethical approval and guidelines. Blood was diluted 1:1 with complete RPMI 1640 medium and separated by centrifugation over a Ficoll-Paque® Plus (Amersham Biosciences, Piscataway, N.J., USA) density gradient. White blood cells were isolated from the buffy coat, washed twice in RPMI 1640 complete medium, and the number of peripheral blood mononuclear cells (PBMC) was determined by Trypan blue exclusion. PBMC (5×10^5) were seeded into 12-well tissue culture dishes (Falcon; Becton Dickinson) at 0.75 to 1×10^6 cells/ml at 37° C. in 5% CO2. The above conditions were chosen to mimic conditions for circulating blood monocytes entering tissues at the site of infection via extravasation.
Following incubation of the cells under various treatment regimens, the tissue culture supernatants were centrifuged at 1000×g for 5 min, then at 10,000×g for 2 min to obtain cell-free samples. […]
Cytotoxicity was assessed using the Lactate dehydrogenase assay. […] Amount of colour formed is detected as increased absorbance measured at […]. […]

[4] = test system: S. aureus biofilm; format: cell-based; details: concentration that reduced biofilm growth by 50%
Experimental: (§1) Methods of assessment of anti-biofilm activity—Biofilm formation was initially analyzed using a static abiotic solid surface assay as described elsewhere (de la Fuente-Nunez et al., 2012). […] Planktonic cells were removed, biofilm cells adhering to the side of the tubes were stained with crystal violet, and absorbance at 595 nm was measured using a microtiter plate reader (Bio-Tek Instruments Inc., United States). Some peptides were screened against two Gram negative organisms, P. aeruginosa and K. pneumoniae using a Bioflux apparatus (AutoMate Scientific, Berkeley, Calif.; http://www.autom8.com/bioflux_biofilm.html), which allows for the high-throughput, real-time analysis of biofilms.

[5] = test system: P. aeruginosa biofilm; format: cell-based; details: concentration that reduced biofilm growth by 50%
Experimental: as §1

[6] = test system: Klebsiella pneumoniae (Kp) biofilm; format: cell-based; details: peptide 10 μg/ml
Experimental: Methods of assessment of anti-biofilm activity—Biofilm formation was initially analyzed using a static abiotic solid surface assay as described elsewhere (de la Fuente-Nunez et al., 2012). Dilutions (1/100) of overnight cultures were incubated in BM2 biofilm-adjusted medium [62 mM potassium phosphate buffer (pH 7), 7 mM (NH4)2SO4, 2 mM MgSO4, 10 μM FeSO4, 0.4% (wt/vol) glucose, 0.5% (wt/vol) Casamino Acids], or a nutrient medium such as Luria Broth, in polypropylene microtiter plates (Falcon, United States) in the absence (control) or presence of peptide. Peptide was added at time zero (prior to adding the diluted, overnight cultures) in varying concentrations, and the decrease in biofilm formation was recorded at 22-46 h for most bacteria. Planktonic cells were removed, biofilm cells adhering to the side of the tubes were stained with crystal violet, and absorbance at 595 nm was measured using a microtiter plate reader (Bio-Tek Instruments Inc., United States). Some peptides were screened against two Gram negative organisms, P. aeruginosa and K. pneumoniae using a Bioflux apparatus (AutoMate Scientific, Berkeley, Calif.; http://www.autom8.com/bioflux_biofilm.html), which allows for the high-throughput, real-time analysis of biofilms.

[7] = test system: Pseudomonas aeruginosa (Pa) biofilm; experiment: static abiotic solid surface (microtiter, crystal violet) / Bioflux biofilm inhibition screen; format: cell-based; details: peptide 10 μg/ml
Method in brief: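 Overnight cultures diluted 1/100 were grown in polypropylene microtiter plates in BM2 medium (pH 7, 0.4% glucose, 0.5% Casamino Acids) or Luria Broth, with peptide at varying concentrations added at time zero. After 22-46 h, adherent biofilm was stained with crystal violet and read at 595 nm. Selected peptides were also screened under flow in a Bioflux system.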

[8] = test system: methicillin resistant S. aureus (Sa) biofilm; format: cell-based, Staphylococcus aureus; details: peptide 5 μg/ml
[9] = test system: C. elegans; experiment: C. elegans survival, uninfected (peptide toxicity); details: peptide 20 μg/ml
Experimental: The C. elegans survival assay was carried out as previously described (Brackman et al., 2011). […] 0.5 ml of this suspension of nematodes was transferred to the wells of a 24-well microtiter plate. An overnight bacterial culture was centrifuged, resuspended in the assay medium, and standardized to 10^8 CFU/ml. Next, 250 μl of this standardized suspension were added to each well, while 250 μl of sterile medium was added to the […]. Peptides were added to the test wells at a final concentration of 20 μg/ml. The assay plates were incubated at 25° C. for up to 2 days. The fraction of dead worms was determined by counting the number of dead worms and the total number of worms in each well, using a dissecting microscope. Peptides were tested at least four times in each assay, and each assay was repeated at least three times (n≥12).

[10] = test system: G. mellonella; experiment: G. mellonella survival, uninfected (peptide toxicity); format: in vivo; details: peptide 20 μg/10 μl
Experimental: In brief, prior to injection in G. mellonella, bacterial cells were washed with PBS and then diluted to either 10^4 or 10^5 CFU per 10 μl. A Hamilton syringe was used to inject 10 μl in the G. mellonella last left proleg. The peptides (20 μg/10 μl) were administered by injecting 10 μl into a different proleg within 1 h after injecting the bacteria. Two control groups were used: the first group included uninfected larvae injected with PBS to monitor killing due to physical trauma; the second group included uninfected larvae receiving no treatment at all. Results from experiments in which one or more larvae in either control group died were discarded and the experiments were repeated. To evaluate the toxicity of the peptides, uninfected larvae were injected with peptides. Larvae were placed in the dark at 37° C. and were scored as dead or alive 24 h and 48 h post-infection. […] At least 20 larvae were injected for each treatment. For each treatment, data from at least six independent experiments were combined.

[11] = test system: P. aeruginosa biofilms; details: compound alone; P. aeruginosa

Question: With `CC[C@H](C)[C@H](NC(=O)[C@H](CCCNC(=N)N)NC(=O)[C@H](Cc1ccccc1)NC(=O)[C@H](CCCNC(=N)N)NC(=O)[C@@H](N)CCCCN)C(=O)N[C@@H](CCCNC(=N)N)C(=O)N[C@H](C(=O)N[C@@H](CCCNC(=N)N)C(=O)N[C@H](C(N)=O)C(C)C)C(C)C` [Peptide 1037] (H-KRFRIRVRV-NH2; N-terminus assumed) as the compound, how does the “anti-biofilm activity IC50” value [1] read?
Answer: 5 mg/L

Question: What about the “antimicrobial activity MIC” value [2] of the same compound?
Answer: 304 mg/L

Question: For `CC[C@H](C)[C@H](NC(=O)[C@H](CC(C)C)NC(=O)[C@@H](NC(=O)[C@H](CCCNC(=N)N)NC(=O)[C@@H](NC(=O)[C@@H](NC(=O)[C@H](CCCNC(=N)N)NC(=O)[C@H](CCCNC(=N)N)NC(=O)[C@@H](N)C(C)C)[C@@H](C)CC)C(C)C)C(C)C)C(=O)N[C@@H](CCCNC(=N)N)C(=O)N[C@@H](Cc1c[nH]c2ccccc12)C(=O)N[C@@H](C)C(N)=O` [HE8] (H-VRRIVRVLIRWA-NH2), which “Notes (toxicity)” value [3] is on record?
Answer: Toxic

Question: With `CC[C@H](C)[C@H](NC(=O)[C@H](CCCNC(=N)N)NC(=O)[C@@H](NC(=O)[C@H](C)NC(=O)[C@@H](NC(=O)[C@@H](NC(=O)[C@H](CC(C)C)NC(=O)[C@H](CCCNC(=N)N)NC(=O)[C@@H](N)C(C)C)[C@@H](C)CC)C(C)C)C(C)C)C(=O)N[C@@H](Cc1c[nH]c2ccccc12)C(=O)N[C@@H](CCCNC(=N)N)C(=O)N[C@@H](CCCNC(=N)N)C(N)=O` [Peptide 1018] (H-VRLIVAVRIWRR-NH2) as the compound, how does the “MBIC50 S. aureus” value [4] read?
Answer: 20 µg/mL

Question: What about the “MBIC50 P. aeruginosa” value [5] of the same compound?
Answer: 2.5 µg/mL

Question: And the “% Biofilm Inhibition Kp” value [6]?
Answer: 99%

Question: What about the “% Biofilm Inhibition Pa” value [7] of the same compound?
Answer: 99%

Question: What about the “% Biofilm Inhibition Sa” value [8] of the same compound?
Answer: 67%

Question: And the “C. elegans survival, No infection” value ([9]; 24 h)?
Answer: 97 ± 4%

Question: And the “C. elegans survival, No infection” value ([9]; 48 h)?
Answer: 88 ± 9%

Question: And the “G. mellonella survival, No infection” value ([10]; 24 h)?
Answer: 90 ± 14%

Question: What about the “G. mellonella survival, No infection” value ([10]; 48 h) of the same compound?
Answer: 90 ± 14%

Question: What about the “Minimal Biofilm Inhibitory Concentration (MBIC)” value [11] of the same compound?
Answer: 24 µg/mL
